Legend:
GIPR = biological target: T1, GIPR (Homo sapiens, UniProt P48546); test: In vitro GIPR agonistic activity test (cAMP kit); type: cell-based; details: CHO host cells
T1 construct: host or cells: CHO
T1 sequence (P48546 22-466): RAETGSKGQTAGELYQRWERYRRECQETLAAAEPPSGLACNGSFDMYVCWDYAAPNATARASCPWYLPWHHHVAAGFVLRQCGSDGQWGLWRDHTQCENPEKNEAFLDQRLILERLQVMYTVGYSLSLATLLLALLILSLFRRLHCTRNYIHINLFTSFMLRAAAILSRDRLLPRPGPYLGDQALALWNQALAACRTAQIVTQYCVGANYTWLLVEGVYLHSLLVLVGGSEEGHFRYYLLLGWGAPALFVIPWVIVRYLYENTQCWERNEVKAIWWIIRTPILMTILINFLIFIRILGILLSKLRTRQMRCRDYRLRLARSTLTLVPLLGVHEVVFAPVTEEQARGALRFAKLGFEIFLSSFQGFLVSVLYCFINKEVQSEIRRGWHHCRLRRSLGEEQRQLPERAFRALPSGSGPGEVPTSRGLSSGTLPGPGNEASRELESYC
Method: The cell lines were constructed by Wuxi […] (Shanghai) Co., Ltd. See details in Table 1 below. […] The test compounds were diluted at a 4-fold dilution factor in 10 points, starting from an initial concentration of 30 μM. The dilution was carried out by Bravo. • 1) 100 nL of compounds were transferred to an OptiPlate-384 plate by Echo. • 2) The OptiPlate-384 plate was centrifuged at 1000 rpm for 5 s. • 1) A GLP-1R/GIPR cell cryovial was placed in warm water at 37° C. for rapid thawing. • 2) The cell suspension was transferred into a 15 mL Transfer centrifugal tube and rinsed with 10 mL of HBSS gently. • 3) The centrifugal tube was centrifuged at 1000 rpm at room temperature for 1 min. • 4) The supernatant was discarded. • 5) The bottom cells were gently dispersed, then gently rinsed with 10 mL of HBSS, the centrifugal tube was centrifuged to settle the cells, and finally the cells were resuspended in an experimental buffer. • 6) Cell density and viability were measured by Vi-cell. • 7) The GLP-1R/GIPR cells were diluted with the experimental buffer to a concentration of 2.0*10^5/mL. • 8) […] of the diluted cell suspension was transferred into the OptiPlate-384 plate. • 9) Incubation was performed at room temperature for 30 min. • 1) 10 μL of 800 nM gradient diluted cAMP standard was added into the empty wells of the OptiPlate-384 plate. • 2) 10 μL of cAMP assay reagent was added. • 3) The OptiPlate-384 plate was covered with TopSeal-A film and incubated at room temperature for 60 min. The TopSeal-A film was removed, and readout was performed on En Vision.

in vitro = in vitro ADME; details: human, plasma
Method: • 1. Before the experiment, the clotted frozen plasma was thawed in a water bath at 37° C. The resulting plasma was centrifuged at 4000 rpm for 5 min. If there is blood clot, remove the clot and adjust the pH to 7.4±0.1. • 2. The test compound solution was prepared by diluting the compounds with DMSO to prepare a solution of 100 μM. • 3. 98 μL of plasma, as a blank control, was added with 2 μL of the test compound solution (100 μM) to get a mixed solution with a final concentration of 2 μM, which was incubated in a water bath at 37° C. • 4. 100 μL of H3PO4 solution and 800 μL of stop solution (a 100% solution of 200 ng/mL tolbutamide and 200 ng/ml labetalol in methanol) were respectively added at each time point (0, 10, 30, 60, and 120 min) to precipitate protein, which was then mixed thoroughly. • 5. The samples were centrifuged at 4000 rpm for 20 min, and 100 μL of supernatant was taken from each well for LC-MS/MS analysis.

human plasma albumin = type: in vitro ADME
Method: (§1) To study the binding of the test compounds to human/mouse plasma albumin. • 1. Blank matrix preparation: On the day of the experiment, the plasma was thawed in cold water and centrifuged at 3220 rpm for 5 min to remove all the blood clots. The pH of the resulting plasma was measured and adjusted to 7.4±0.1 with 1% of phosphoric acid or 1 N of sodium hydroxide as desired. • 2. Dilution of the test compounds: the test compounds were dissolved in dimethyl sulfoxide (DMSO) to prepare stock solutions of 10 mM and 2 mM, respectively. 2 μL of the stock solution (2 mM) was diluted with 98 μL of DMSO to obtain a working solution of 40 μM. 10 μL of the stock solution was diluted with 240 μL of DMSO to obtain a working solution of control compounds of 400 μM. A working solution of the compounds (5 μL) was mixed evenly with a blank matrix (995 μL) at a ratio of 1:200 to prepare a loading matrix. • 3. Analytical procedure • 3.1 Equal amounts of 30 μL of the loading matrix (n=2) were transferred into a sample collection plate to prepare Time 0 (T0) samples for residue determination. The samples were immediately matched with corresponding blank buffer to a final volume of 60 μL, with a volume ratio of plasma (the loading matrix) to buffer being 1:1 in each well. Then, into the T0 samples of the test compounds were respectively added 60 μL of 4% H3PO4 in H2O and 480 μL of stop solution containing internal standard. They were then stored at 2° C. to 8° C. together with other samples for further treatment. • 3.2 The remaining plasma samples were pre-incubated in a carbon dioxide incubator at 37±1° C. for 30 min. Protein-free samples (F samples) were prepared. Matrix-loaded samples (230 μL) were all transferred into polycarbonate tubes (n=2) and ultracentrifuged at 37° C. and 155,000×g (35000 rpm) for 4 h. • 3.3 To prepare T samples (test samples), an additional matrix-containing sample was transferred into a separate 96-well plate (sample incubation plate) and incubated at 37° C. for 4 h. • 3.4 At the end of centrifugation, 30 μL of protein-free samples (F samples) and 30 μL of T samples were taken from the second layer (beneath the upper layer) of the supernatant and transferred into a new sample collection plate. Each sample was mixed with corresponding blank buffer or matrix to a final volume of 60 μL, and the blank matrix:buffer volume ratio is 1:1. Into all the samples were added 60 μL of 4% H3PO4 solution in water and 480 μL of stop solution containing internal standard. The mixture was centrifuged at 4000 rpm for 20 min. 100 μL of supernatant for each sample was taken for LC-MS/MS analysis.

mouse plasma albumin = type: in vitro ADME
Method: as §1

Row | SMILES | EC50 (GIPR; with 1% HSA) | EC50 (GIPR; without 1% HSA) | half-life (in vitro) | PPB % unbound (H/M), H (human plasma albumin) | PPB % unbound (H/M), M (mouse plasma albumin) | half-life at 2 μM (in vitro; pH 7.4)
1 | CC[C@H](C)[C@H](NC(=O)[C@H](CC(C)C)NC(=O)[C@H](Cc1c[nH]c2ccccc12)NC(=O)[C@H](CCC(=O)O)NC(=O)[C@@H](NC(=O)[C@H](Cc1ccccc1)NC(=O)[C@H](C)NC(=O)[C@@H]1CCCCNC(=O)CN(C(=O)COCCOCCNC(=O)COCCOCCNC(=O)CC[C@H](NC(=O)CCCCCCCCCCCCCCCCCCC(=O)O)C(=O)O)CC(=O)NCCCC[C@H](NC(=O)[C@H](CCCCN)NC(=O)[C@H](CC(=O)O)NC(=O)[C@H](CC(C)C)NC(=O)C(C)(C)NC(=O)[C@@H](NC(=O)[C@H](CO)NC(=O)[C@H](Cc2ccc(O)cc2)NC(=O)[C@H](CC(=O)O)NC(=O)[C@H](CO)NC(=O)[C@@H](NC(=O)[C@H](Cc2ccccc2)NC(=O)[C@@H](NC(=O)CNC(=O)[C@H](CCC(=O)O)NC(=O)C(C)(C)NC(=O)[C@@H](N)Cc2ccc(O)cc2)[C@@H](C)O)[C@@H](C)O)[C@@H](C)CC)C(=O)N[C@@H](C)C(=O)N[C@@H](CCC(N)=O)C(=O)N1)C(C)C)C(=O)N[C@@H](C)C(=O)NCC(=O)NCC(=O)N1CCC[C@H]1C(=O)N[C@@H](CO)C(=O)N[C@@H](CO)C(=O)NCC(=O)N[C@@H](C)C(=O)N1CCC[C@H]1C(=O)N1CCC[C@H]1C(=O)N1CCC[C@H]1C(=O)N[C@@H](CO)C(N)=O [WX-005] | 19.3 nM | 0.16 nM | > 4.82 h | NA/NA | NA/NA | –
2 | CC[C@H](C)[C@H](NC(=O)[C@H](CC(C)C)NC(=O)[C@H](Cc1c[nH]c2ccccc12)NC(=O)[C@H](CCC(=O)O)NC(=O)[C@@H](NC(=O)[C@H](Cc1ccccc1)NC(=O)[C@H](CCC(=O)O)NC(=O)[C@@H]1CCCCNC(=O)CN(C(=O)COCCOCCNC(=O)COCCOCCNC(=O)CC[C@H](NC(=O)CCCCCCCCCCCCCCCCCCC(=O)O)C(=O)O)CC(=O)NCCCC[C@H](NC(=O)[C@H](CCCCN)NC(=O)[C@H](CC(=O)O)NC(=O)[C@H](CC(C)C)NC(=O)C(C)(C)NC(=O)[C@@H](NC(=O)[C@H](CO)NC(=O)[C@H](Cc2ccc(O)cc2)NC(=O)[C@H](CC(=O)O)NC(=O)[C@H](CO)NC(=O)[C@@H](NC(=O)[C@H](Cc2ccccc2)NC(=O)[C@@H](NC(=O)CNC(=O)[C@H](CCC(=O)O)NC(=O)C(C)(C)NC(=O)[C@@H](N)Cc2ccc(O)cc2)[C@@H](C)O)[C@@H](C)O)[C@@H](C)CC)C(=O)N[C@@H](C)C(=O)N[C@@H](CCC(N)=O)C(=O)N1)C(C)C)C(=O)N[C@@H](C)C(=O)NCC(=O)NCC(=O)N1CCC[C@H]1C(=O)N[C@@H](CO)C(=O)N[C@@H](CO)C(=O)NCC(=O)N[C@@H](C)C(=O)N1CCC[C@H]1C(=O)N1CCC[C@H]1C(=O)N1CCC[C@H]1C(=O)N[C@@H](CO)C(N)=O [WX-009] | – | 0.074 nM | – | NA/NA | NA/NA | > 4.82 h

Source: patent publication US20240270810A1, “PREPARATION AND APPLICATION OF POLYPEPTIDE” (GUANGDONG RAYNOVENT BIOTECH CO., LTD., priority 2021, published 2024)
